# Measurements: article PMC12256496, “An advancement in developmental and reproductive toxicity (DART) risk assessment: evaluation of a bioactivity and exposure-based NAM toolbox” (Frontiers in Toxicology, 2025)
# Where two headings read alike, the source gives them in different places.
# Columns and labels:
# [1] = test system: humans; conditions: ref Supplementary Data Sheet 1, cited from earlier work
# [2] = test system: developmental or reproductive toxicity in animal or human; conditions: cited from earlier work
# [3] = Human in vivo PK data: concentration-dose ratio (CDR) and toxicokinetic variability factor (TKVF); parameters: 95% percentile (Conc-dose-ratio): unit not given here;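 further: Literature-pooled human in vivo PK data, plasma, serum or cord blood concentrations per daily dose, weighted by study population size across non-pregnant, pregnant and fetal groups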
# [4] = test system: human induced pluripotent stem cell (hiPSC); test: devTOX quickPredict (ornithine/cystine ratio, cell viability); assay type: cell-based
# Experimental: devTOX quickPredict is a human induced pluripotent stem cell (hiPSC) -based assay that predicts the concentration at which a compound may elicit developmental toxicity. […] Assays were performed as described in [Palmer et al. (2013)] with modifications. Briefly undifferentiated hiPSCs are exposed to the compound for 48 h, with media and test article replacement every 24 h. Ornithine and […] concentrations were measured from the final 24-h treatment using Ultra-Performance Liquid Chromatography-High Resolution Mass Spectrometry (UPLC-HRMS). Cell viability was assessed after sample collection using the CellTiter-Fluor Cell Viability Assay (Promega). Dose-response analysis for the o/c ratio, cell viability, ornithine response and cystine response were performed with GraphPad Prism (version 9.1 or newer, GraphPad Software). Each data set was fit with a nonlinear model. The standard model used for analysis is a four-parameter log-logistic nonlinear model. However, the Akaike information criterion (GraphPad Prism) was used to determine if an asymmetric (five-parameter) or multiphasic nonlinear model was a better fit for the data than the four-parameter model. The developmental toxicity potential (dTP, o/c ratio) and toxicity potential (TP, cell viability) concentrations were predicted from the respective dose-response curves using the hiPSCs cell developmental toxicity threshold (dTT, 0.85).
# [5] = hepatic intrinsic clearance, CLint (PBK parameter); assay type: in vitro ADME
# [6] = human
# [7] = test system: human developmental and reproductive toxicity; conditions: cited from earlier work
# [8] = cited from earlier work
# [9] = parental/systemic toxicity, not reproductive effects; ref Supplementary Data Sheet 1; cited from earlier work
# [10] = Bioactivity exposure ratio (BER): minimum platform PoD / estimated Cmax
# [11] = ref FSCJ, EFSA, SCF, JMPR as named in the cell; cited from earlier work
# [12] = test system: human induced pluripotent stem cells (hiPSCs); test: ReproTracker (cardiomyocyte, hepatocyte-like and neuronal differentiation); assay type: cell-based
# Source text: The ReproTracker assay assesses chemical perturbation of early embryonic development by evaluating key events of cardiomyocyte, hepatocyte-like (HLC) and neuronal cell differentiation using human induced pluripotent stem cells (hiPSCs). The ReproTracker protocol is described in ([Jamalpoor et al., 2022]; [Moreau et al., 2023]) and was followed introducing a few modifications to allow for concentration response analysis. […] Lineage specific differentiation was then investigated by assessment of gene expression patterns of cell-specific biomarkers, induced cytotoxicity (AlamarBlue cell viability assay) and by morphological profiling. Gene biomarkers quantified by multiplex qRT-PCR included BMP4 and MYH6 for cardiomyocytes, FOXA2 and AFP for hepatocyte-like cells, PAX6 and NESTIN for neural rosette lineage. […] Saccharin was used as a negative control substance for all 3 lineages. For dose dependent qRT-PCR analysis quality control filtered Ct values were normalised using an adaptation of the Pfaffl ([Pfaffl, 2001]) method to calculate ΔCt values with respect to biomarker and housekeeping gene amplification efficiencies. […] In addition, Alamar blue read outs were taken from the differentiating cells at day 7 and the end of each differentiation to measure cell viability in a dose dependent way. The AlamarBlue readout was normalised and transformed using a Bayesian hierarchical approach The Bayesian model assumes measurement between rows on the treatment plates are correlated but allows for differences in average sample response between rows. […] The final cell viability PODs were those at time point end (day 14 for cardiomyocytes, day 21 for HCLs and day 13 for neural) and had CDS above or equal to 0.5. Both the gene biomarker PODs and cell viability/cytotoxicity PODs for each tested lineage are considered for BER calculation.
# [13] = test system: rats; conditions: ref Supplementary Data Sheet 1, cited from earlier work
# [14] = test system: rabbits; parameters: method as in Supplementary Data Sheet 1; conditions: ref Supplementary Data Sheet 1, cited from earlier work
# [15] = evidence of developmental or reproductive toxicity in animal or human, irrespective of exposure/dose, ref Supplementary Data Sheet 1
# [16] = Non-Pregnant population, TKVF95 = p95 / weighted mean concentration-dose ratio
# [17] = Fetus population, TKVF95 = p95 / weighted mean concentration-dose ratio
# [18] = Pregnant population, TKVF95 = p95 / weighted mean concentration-dose ratio
# [19] = Foetus, oral, combined (retinyl palmitate, dietary retinoids)
# [20] = Non-Pregnant population (reference)
# [21] = Non-Pregnant, oral, combined (retinyl palmitate, dietary retinoids)
# [22] = Pregnant, oral, combined (retinyl palmitate, dietary retinoids)
# [23] = Non-Pregnant, combined (oral, IV)
compound,measurement,setting,value
CCOP(=S)(OCC)Oc1nc(Cl)c(Cl)cc1Cl [Chlorpyrifos],level of the high exposure group associated with developmental neurotoxicity,"[1]; prenatal exposure, cord blood biomonitoring",The high exposure CPF group (≥4.39 pg/g) was associated with developmental neurotoxicity
same,DART Hazard Call,[2],Toxic
same,Mean Conc-dose -ratio,"[3]; Non-Pregnant, oral",0.002 uM/(mg/day]
"CCCCOC(=O)c1ccccc1C(=O)OCCCC [Dibutyl phthalate (DBP), Dibutyl phthalate]",DART Hazard Call,[2],Toxic
same,response in devTox quickPredict,[4]; at concentrations above the TDI,positive response
CCCCOC(=O)c1ccccc1C(=O)OCCCC [Dibutyl phthalate],Intrinsic Liver Clearance,[5],1887.4 L/h
same,Renal Clearance,[6],0.2 L/h
CCOc1cc(CCC(C)=O)ccc1O [Ethylzingerone],DART Hazard Call,[2],Non Toxic
same,Exposure risk (DART risk classification),[7],Low Risk
same,Aqueous Solubility,[8]; pH 6.25,7.59 mg/mL
same,Renal Clearance,[6],2.012 L/h
CC(C)(C)c1ccc(CCOc2ncnc3ccccc23)cc1 [Fenazaquin],DART Hazard Call,[2]; [15],Non Toxic
same,NOAEL on which the ADI is based,[9],No evidence of developmental or reproductive toxicity. ADI is based on the NOAEL from this study of 5 mg/kg/day but this was based on parental/systemic toxicity and not reproductive effects.
same,Exposure risk (DART risk classification),"[7]; Dietary, 3 mg/daily, oral, ref Supplementary Data Sheet 1",Low Risk
same,BER,[10]; low-risk exposure scenario of the compound,< 1
same,Aqueous Solubility,"[8]; Solubility pH 7.01, median, ref [7],[8]",0.00019 mg/mL
same,Renal Clearance,[6],0.577 L/h
same,ADI,[11],ADI set by JMPR (0.05 mg/kg/day)
"CN(Cc1cnc2nc(N)nc(N)c2n1)c1ccc(C(=O)N[C@@H](CCC(=O)O)C(=O)O)cc1 [Methotrexate (MTX), Methotrexate]",DART Hazard Call,[2]; [15],Toxic
same,Exposure risk (DART risk classification),"[7]; Pharmaceutical, 10 mg/weekly, oral, ref Supplementary Data Sheet 1",High Risk
same,TKVF,[3]; [16],2.74
same,TKVF,"[3]; Non-Pregnant, combined (oral, intramuscular, subcutaneous)",2.74
same,CDR fold difference to non-pregnant,"[3]; female, human, in vivo",1.11
same,TKVF,"[3]; female, human, in vivo",2.65
same,95% percentile (Conc-dose-ratio),"[3]; female, human, in vivo, sc",0.15
same,Fold Difference to non-pregnant,"[3]; female, human, in vivo, sc",1.11
same,Mean Conc-dose -ratio,"[3]; female, human, in vivo, sc",0.055 uM/(mg/day]
same,TKVF,"[3]; female, human, in vivo, sc",2.65
same,CDR fold difference to non-pregnant,"[3]; human, in vivo",1.00
same,BER from devTOX quickPredict,"[4]; PoD 0.06 μM, high-risk scenario 10 mg/weekly",~1
same,concentration at which disruption to iPSC metabolism was detected,[4]; devTOX quickPredict,0.06 µM
same,concentration leading to effects on iPSC differentiation,"[12]; additional testing in ReproTracker, data not shown",above 0.0085 μM
CCN(CC)CCNC(=O)c1cc(Cl)c(N)cc1OC [Metoclopramide],DART Hazard Call,[2],Toxic
same,"exposure without adverse developmental effects, multiple of maximum recommended human dose","[13]; oral, pregnant rats",~6 times
same,TKVF,[3]; [17],1.97
same,TKVF,"[3]; Foetus, IV",1.97
same,TKVF,[3]; [16],2.85
same,TKVF,"[3]; Non-Pregnant, combined (oral+IV)",2.85
same,TKVF,[3]; [18],2.71
same,TKVF,"[3]; Pregnant, IV",2.71
same,"exposure without adverse developmental effects, multiple of maximum recommended human dose","[14]; oral, pregnant rabbits",~12 times
CC1=C(/C=C/C(C)=C/C=C/C(C)=C/CO)C(C)(C)CCC1 [Retinol],exposure above which DART effects are seen in vivo,[1],"above 3,000 μg RE/day"
same,DART Hazard Call,[2]; [15],Toxic
same,Exposure risk (DART risk classification),"[7]; Cosmetic, 0.05% in body lotion, dermal, ref Supplementary Data Sheet 1",Low Risk
same,Exposure risk (DART risk classification),"[7]; Dietary, <10,000 IU, oral, ref Supplementary Data Sheet 1",Low Risk
same,BER,[10]; low-risk scenario of normal dietary exposure to retinol and its metabolite,< 1
same,CDR fold difference to non-pregnant,[3]; Fetus population,0.82
same,TKVF,[3]; [17],1.86
same,95% percentile (Conc-dose-ratio),[3]; [19],2.85
same,Fold Difference to non-pregnant,[3]; [19],0.82
same,Fold Difference to pregnant,[3]; [19],0.93
same,Mean Conc-dose -ratio,[3]; [19],1.54 uM/(mg/day]
same,TKVF,[3]; [19],1.86
same,CDR fold difference to non-pregnant,[3]; [20],1.00
same,TKVF,[3]; [16],2.32
same,95% percentile (Conc-dose-ratio),[3]; [21],4.34
same,Fold Difference to non-pregnant,[3]; [21],1.00
same,Mean Conc-dose -ratio,[3]; [21],1.87 uM/(mg/day]
same,TKVF,[3]; [21],2.32
same,CDR fold difference to non-pregnant,[3]; Pregnant population,0.88
same,TKVF,[3]; [18],1.64
same,95% percentile (Conc-dose-ratio),[3]; [22],2.70
same,Fold Difference to non-pregnant,[3]; [22],0.88
same,Fold Difference to pregnant,[3]; [22],1.00
same,Mean Conc-dose -ratio,[3]; [22],1.65 uM/(mg/day]
same,TKVF,[3]; [22],1.64
CN(CCOc1ccc(CC2SC(=O)NC2=O)cc1)c1ccccn1 (centres unmarked) [Rosiglitazone],"no-effect dose for effects on the placenta, embryo/fetus and offspring",[13]; rats,0.2 mg/kg/day
same,TKVF,"[3]; female, human, in vivo",1.71
same,TKVF,"[3]; female, human, in vivo, po",1.71
same,TKVF,"[3]; human, in vivo",4.34
same,TKVF,"[3]; human, in vivo, po",4.34
same,"no-effect dose for effects on the placenta, embryo/fetus and offspring",[14]; rabbits,15 mg/kg/day
O=C1CCC(N2C(=O)c3ccccc3C2=O)C(=O)N1 (centres unmarked) [Thalidomide],mortality at or shortly after birth,[1]; infants,"Thalidomide is a powerful human teratogen, inducing a high frequency of severe and life-threatening birth defects, even after a single dose. Mortality at or shortly after birth has been reported in about 40% of infants."
same,DART Hazard Call,[2]; [15],Toxic
same,Exposure risk (DART risk classification),"[7]; Pharmaceutical, 50 mg/daily, oral, ref Supplementary Data Sheet 1",High Risk
same,95% percentile (Conc-dose-ratio),"[3]; human, in vivo, po",0.06
same,Mean Conc-dose -ratio,"[3]; human, in vivo, po",0.036 uM/(mg/day]
same,TKVF,"[3]; human, in vivo, po",1.73
"CCCC(CCC)C(=O)O [Valproic acid (VPA), Valproic acid]",DART Hazard Call,[2]; [15],Toxic
same,Exposure risk (DART risk classification),"[7]; Pharmaceutical, 600 mg/daily, oral, ref Supplementary Data Sheet 1",High Risk
same,Exposure risk (DART risk classification),"[7]; Pharmaceutical, 3,600 mg/daily, oral, ref Supplementary Data Sheet 1",High Risk
same,CDR fold difference to non-pregnant,[3]; Fetus population,0.78
same,CDR fold difference to pregnant,[3]; Fetus population,1.13
same,TKVF,[3]; [17],1.52
same,95% percentile (Conc-dose-ratio),"[3]; Foetus, combined (oral, IV)",0.52
same,Fold Difference to non-pregnant,"[3]; Foetus, combined (oral, IV)",0.78
same,Fold Difference to pregnant,"[3]; Foetus, combined (oral, IV)",1.13
same,Mean Conc-dose -ratio,"[3]; Foetus, combined (oral, IV)",0.34 uM/(mg/day]
same,TKVF,"[3]; Foetus, combined (oral, IV)",1.52
same,CDR fold difference to non-pregnant,[3]; [20],1.00
same,TKVF,[3]; [16],1.62
same,95% percentile (Conc-dose-ratio),[3]; [23],0.71
same,Fold Difference to non-pregnant,[3]; [23],1.00
same,Mean Conc-dose -ratio,[3]; [23],0.44 uM/(mg/day]
same,TKVF,[3]; [23],1.62
same,CDR fold difference to non-pregnant,[3]; Pregnant population,0.69
same,CDR fold difference to pregnant,[3]; Pregnant population (reference),1.00
same,TKVF,[3]; [18],1.85
same,95% percentile (Conc-dose-ratio),"[3]; Pregnant, combined (oral, IV)",0.56
same,Fold Difference to non-pregnant,"[3]; Pregnant, combined (oral, IV)",0.69
same,Fold Difference to pregnant,"[3]; Pregnant, combined (oral, IV)",1.00
same,Mean Conc-dose -ratio,"[3]; Pregnant, combined (oral, IV)",0.30 uM/(mg/day]
same,TKVF,"[3]; Pregnant, combined (oral, IV)",1.85
same,BER from devTOX quickPredict,[4]; Figure 8B,< 1
same,BER from ReproTracker,[12]; Figure 8B,< 1
CC(=O)CC(c1ccccc1)c1c(O)c2ccccc2oc1=O (centres unmarked) [Warfarin],TKVF,"[3]; female, human, in vivo",1.93
same,TKVF,"[3]; female, human, in vivo, po",1.93
same,TKVF,"[3]; human, in vivo",1.82
same,TKVF,"[3]; human, in vivo, po",1.82
same,ReproTracker outcome,"[12]; at higher concentrations, not sensitive enough for a protective PoD",flags potential embryotoxicity
